Measured values: patent US20230017045A1, “PYRIDINE AND PYRIMIDINE CARBOXYLATE HERBICIDES AND METHODS OF USE THEREOF” (Dow AgroSciences LLC, priority 2017, published 2023)
Read-outs that look alike come from different tables or passages of the source.

System: test plant species
Assay: Post-emergent herbicidal activity test (greenhouse, foliar spray, visual growth reduction)
Format: in vivo
Settings: post-emergence, 336 h, 140 g ai/ha
Procedure, shortened: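 Visual percent injury (0-100) rated 14 d after treatment, relative to nontreated and solvent-blank plants. Test plants at first or second true leaf stage received an overhead track-sprayer application at 187 L/ha. Compounds were formulated in aqueous acetone/DMSO carrier containing crop oil concentrate and X-77 surfactant.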

[1] = ECHCG: barnyardgrass (Echinochloa crus-galli), 14 days after application, read-out: Visual Growth Reduction (%) 14 Days After Application, ECHCG
[2] = IPOHE: ivy-leaf morning glory (Ipomoea hederacea), 14 days after application, read-out: Visual Growth Reduction (%) 14 Days After Application, IPOHE
[3] = KCHSC: kochia (Bassia scoparia), 14 days after application, read-out: Visual Growth Reduction (%) 14 Days After Application, KCHSC
[4] = ORYSA: rice (Oryza sativa), 14 days after application, read-out: Visual Growth Reduction (%) 14 Days After Application, ORYSA
[5] = SETFA: giant foxtail (Setaria faberi), 14 days after application, read-out: Visual Growth Reduction (%) 14 Days After Application, SETFA
[6] = SORVU: grain sorghum (Sorghum vulgare), 14 days after application, read-out: Visual Growth Reduction (%) 14 Days After Application, SORVU
[7] = STEME: common chickweed (Stellaria media), 14 days after application, read-out: Visual Growth Reduction (%) 14 Days After Application, STEME
[8] = TRZAS: wheat, spring (Triticum aestivum), 14 days after application, read-out: Visual Growth Reduction (%) 14 Days After Application, TRZAS
[9] = blackgrass (Alopecurus myosuroides), 14 Days After Application, read-out: Visual Growth Reduction (%) ALOMY
[10] = canada thistle (Cirsium arvense), 14 Days After Application, read-out: Visual Growth Reduction (%) CIRAR
[11] = crabgrass (Digitaria sanguinalis), 14 Days After Application, read-out: Visual Growth Reduction (%) DIGSA
[12] = lambsquarters (Chenopodium album), 14 Days After Application, read-out: Visual Growth Reduction (%) CHEAL
[13] = redroot pigweed (Amaranthus retroflexus), 14 Days After Application, read-out: Visual Growth Reduction (%) AMARE
[14] = wild oat (Avena fatua), 14 Days After Application, read-out: Visual Growth Reduction (%) AVEFA
[15] = yellow nutsedge (Cyperus esculentus), 14 Days After Application, read-out: Visual Growth Reduction (%) CYPES

SMILES	pest or weed control at 140 g/ha [1]	pest or weed control at 140 g/ha [2]	pest or weed control at 140 g/ha [3]	pest or weed control at 140 g/ha [4]	pest or weed control at 140 g/ha [5]	pest or weed control at 140 g/ha [6]	pest or weed control at 140 g/ha [7]	pest or weed control at 140 g/ha [8]	pest or weed control at 140 g/ha [9]	pest or weed control at 140 g/ha [10]	pest or weed control at 140 g/ha [11]	pest or weed control at 140 g/ha [12]	pest or weed control at 140 g/ha [13]	pest or weed control at 140 g/ha [14]	pest or weed control at 140 g/ha [15]
C=Cc1cc(C(F)(F)F)cc(Cl)c1-c1ccc(Cl)c(C(=O)OC)n1 [F216, methyl 3-chloro-6-(2-chloro-4-(trifluoromethyl)-6-vinylphenyl)picolinate]	0 to 29%	95 to 100%	30 to 44%	0 to 29%	60 to 74%	60 to 74%	0 to 29%	45 to 59%	0 to 29%	60 to 74%	0 to 29%	95 to 100%	30 to 44%	0 to 29%	0 to 29%
COC(=O)c1nc(-c2ccc(C(F)(F)F)c(N)c2)ccc1Cl [F218, methyl 6-(3-amino-4-(trifluoromethyl)phenyl)-3-chloropicolinate]	0 to 29%	0 to 29%	0 to 29%	0 to 29%	0 to 29%	0 to 29%	0 to 29%	0 to 29%	0 to 29%	30 to 44%	0 to 29%	60 to 74%	0 to 29%	0 to 29%	0 to 29%
COC(=O)c1nc(-c2ccccc2)c(F)cc1Cl [F219, Methyl 3-chloro-5-fluoro-6-phenylpicolinate]	0 to 29%	45 to 59%	0 to 29%	0 to 29%	0 to 29%	60 to 74%	0 to 29%	0 to 29%	0 to 29%	0 to 29%	30 to 44%	45 to 59%	0 to 29%	0 to 29%	0 to 29%
COC(=O)c1nc(-c2ccc(OC(F)F)cc2F)c(F)cc1Cl [F221, Methyl 3-chloro-6-(4-(difluoromethoxy)-2-fluorophenyl)-5-fluoropicolinate]	85 to 94%	95 to 100%	85 to 94%	0 to 29%	85 to 94%	95 to 100%	0 to 29%	75 to 84%	75 to 84%	95 to 100%	95 to 100%	95 to 100%	95 to 100%	75 to 84%	75 to 84%
C=Cc1cc(C(F)(F)F)cc(Cl)c1-c1ccc(Cl)c(C(=O)O)n1 [F222, 3-Chloro-6-(2-chloro-4-(trifluoromethyl)-6-vinylphenyl) picolinic acid]	60 to 74%	95 to 100%	45 to 59%	0 to 29%	30 to 44%	75 to 84%	0 to 29%	45 to 59%	0 to 29%	85 to 94%	75 to 84%	75 to 84%	75 to 84%	0 to 29%	0 to 29%
COc1cc(C(F)(F)F)cc(Cl)c1-c1ccc(Cl)c(C(=O)O)n1 [F223, 3-Chloro-6-(2-chloro-6-methoxy-4-(trifluoromethyl)phenyl) picolinic acid]	75 to 84%	95 to 100%	95 to 100%	30 to 44%	85 to 94%	85 to 94%	60 to 74%	75 to 84%	0 to 29%	95 to 100%	60 to 74%	95 to 100%	95 to 100%	60 to 74%	45 to 59%
O=C(O)c1nc(-c2c(Cl)cc(C(F)(F)F)cc2[N+](=O)[O-])ccc1Cl [F224, 3-Chloro-6-(2-chloro-6-nitro-4-(trifluoromethyl)phenyl)picolinic acid]	0 to 29%	95 to 100%	45 to 59%	45 to 59%	45 to 59%	60 to 74%	0 to 29%	0 to 29%	0 to 29%	45 to 59%	75 to 84%	95 to 100%	85 to 94%	0 to 29%	0 to 29%
O=C(O)c1nc(-c2nc(Cl)c(C(F)(F)F)cc2Cl)ccc1Cl [F225, 3′,5,6′-Trichloro-5'-(trifluoromethyl)-[2,2′-bipyridine]-6-carboxylic acid]	95 to 100%	95 to 100%	95 to 100%	85 to 94%	95 to 100%	95 to 100%	45 to 59%	75 to 84%	45 to 59%	85 to 94%	95 to 100%	95 to 100%	95 to 100%	95 to 100%	45 to 59%
O=C(O)c1nc(-c2ccc(OC(F)(F)F)cc2Cl)ccc1Cl [F226, 3-Chloro-6-(2-chloro-4-4-(trifluoromethoxy)phenyl)picolinic acid]	60 to 74%	95 to 100%	60 to 74%	0 to 29%	85 to 94%	85 to 94%	0 to 29%	45 to 59%	45 to 59%	85 to 94%	95 to 100%	95 to 100%	60 to 74%	45 to 59%	0 to 29%
COC(=O)c1nc(-c2ccc(F)cc2)c(F)cc1Cl [F227, Methyl 3-chloro-5-fluoro-6-(4-fluorophenyl) picolinate]	0 to 29%	60 to 74%	0 to 29%	0 to 29%	0 to 29%	60 to 74%	0 to 29%	0 to 29%	0 to 29%	30 to 44%	30 to 44%	75 to 84%	0 to 29%	0 to 29%	0 to 29%
COC(=O)c1nc(-c2c(C=O)cc(OC)c(O)c2Cl)ccc1Cl [F228, Methyl 3-chloro-6-(2-chloro-6-formyl-3-hydroxy-4-methoxyphenyl) picolinate]	0 to 29%	0 to 29%	0 to 29%	0 to 29%	0 to 29%	0 to 29%	0 to 29%	0 to 29%	0 to 29%	0 to 29%	0 to 29%	0 to 29%	0 to 29%	0 to 29%	0 to 29%
